Reference: paper PMC7029132, “The pentose phosphate pathway of cellulolytic clostridia relies on 6-phosphofructokinase instead of transaldolase” (The Journal of Biological Chemistry, 2019)

Biological target: T1, rabbit aldolase (Oryctolagus cuniculus, UniProt P00883)
T1 construct: gene ALDOA; commercial native enzyme (Sigma A8811)
T1 sequence (P00883 2-364): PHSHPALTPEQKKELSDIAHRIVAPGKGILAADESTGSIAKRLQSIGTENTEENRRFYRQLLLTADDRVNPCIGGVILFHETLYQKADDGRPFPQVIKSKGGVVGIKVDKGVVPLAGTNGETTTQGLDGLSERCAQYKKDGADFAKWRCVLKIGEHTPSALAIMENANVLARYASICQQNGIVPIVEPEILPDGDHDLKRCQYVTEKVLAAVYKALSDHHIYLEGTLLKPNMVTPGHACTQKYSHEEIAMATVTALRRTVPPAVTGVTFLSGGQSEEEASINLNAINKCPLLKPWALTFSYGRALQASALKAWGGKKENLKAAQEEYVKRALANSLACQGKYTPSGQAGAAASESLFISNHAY
Test: LC-MS time course of E4P and DHAP formation, SBP made in situ by PPi-PFK
Format: biochemical
Settings: 100 mM Tris-HCl pH 7 at 55 °C, 5 mM MgCl2, 5 mM PPi, 1 mM S7P, 4 units aldolase

## O=C(COP(=O)(O)O)[C@@H](O)[C@H](O)[C@H](O)[C@H](O)COP(=O)(O)O [SBP]
  LC-MS time course of E4P and DHAP formation, SBP made in situ by PPi-PFK: rabbit aldolase was able to convert the formed SBP to E4P and DHAP
